{
  "source": "patent US10195179B2",
  "about": "“Spiro-lactam NMDA receptor modulators and uses thereof” (Aptinyx Inc., priority 2016, dated 2019)",
  "tested_on": "rat Schaffer collateral-evoked NMDA fEPSPs recorded in CA1 pyramidal neurons",
  "experiment": "Long-term potentiation in hippocampal slices",
  "type": "cell-based",
  "settings": "bath application 100 nm, 500 nm, 2 μM",
  "experimental": "Assays were conducted as described in Zhang et al. (Zhang, X. L., Sullivan, J. A., Moskal., J. R., Stanton, P. K., 2008. A NMDA receptor glycine site partial agonist, GLYX-13, simultaneously enhances LTP and reduces LTD at Schaffer collateral-CA1 synapses in hippocampus. Neuropharmacology, 55, 1238-50). See also Burgdorf, J, Zhang X L, Nicholson K L, Balster R L, Leander J D, Stanton P K, Gross A L, Kroes R A, Moskal J R (2013), GLYX-13, a NMDA receptor glycine-site functional partial agonist, induces antidepressant-like effects without ketamine-like side effects, Neuropsychopharmacology: official publication of the American College of Neuropsychopharmacology 38:729-742. […] A bipolar tungsten ystimulating electrode (FHC Co.) was placed on Schaffer collateral-commissural fibers in CA3 stratum radiatum, and constant current stimulus intensity adjusted to evoke approximately half-maximal fEPSPs once each 30 s ([…]; 100 μs duration). fEPSP slope was measured before and after induction of LTP by linear interpolation from 20 to 80% of maximum negative deflection, and slopes confirmed to be stable to within ±10% for at least 15 min before commencing an experiment. […] The signals were recorded using a Multiclamp 700B amplifier and digitized with a Digidata 1322 (Axon Instruments, USA).",
  "data": [
    {"smiles": "C[C@@H](O)[C@@H](C(N)=O)N1C[C@@]2(CCCN2S(C)(=O)=O)C1=O", "note": "[Compound BB, (2S,3R)-3-hydroxy-2-((S)-5-(methylsulfonyl)-1-oxo-2,5-diazaspiro[3,4]octan-2-yl)butanamide]", "values": [
      {"measurement": "long-term potentiation after high frequency stimulation", "value": "increased long-term potentiation"}
    ]}
  ]
}
